Test results published in patent US10851348B2, “Proliferative primary human Sertoli cell cultures and their applications” (Mandalmed, Inc., priority 2006, dated 2020).

Legend:
rat Sertoli cell TJs = conditions: cited from earlier work
[1] = system: human Sertoli cells (MM-HSe-2305 cells); test: BrdU proliferation of human Sertoli cells in response to FSH treatment; type: cell-based; conditions: 200-ng/ml FSH for 1 week; >50 fields; p<0.001 vs without FSH
Method: It has been reported that cultured rat Sertoli cells, proliferate in response to recombinant FSH (Buzzard, Wreford et al. 2002). We determined the response of the human cells to FSH treatment to provide further evidence that they are Sertoli cells. The human Sertoli cells (MM-HSe-2305 cells; 7,000 per well) were placed in 8-well chamber slides and incubated with control media or with media containing 200-ng/ml FSH (Sigma-Aldrich) for 1 week. Then the cells were labeled with BrdU that is incorporated into nuclei during DNA synthesis prior to mitosis. The slides were stained with anti-BrdU antibody (finally stained by Texas red) followed by staining with an antibody to FSHr (finally with FITC), and nuclei marked by bisbenzamide.
Briefly, the MM-HSE-2305 cells were labeled with BrdU (Roche; 100 μM) at 37° C./[…] for 2 hours then washed three times with PBS followed by fixing with 4% PFA for 30 min. […] Fluorescence was enhanced by incubating with ABC solution (Vector laboratories) for 30 min. Immunoreactivity was visualized by fluorescence microscopy using avidin-conjugated Texas red (1:200 in PBS) for 1 hour.
Photomicrographs were taken with different filters of the same field. The percentage of proliferating Sertoli cells was determined by the counting the number of FSHr, BrdU double positive cells and dividing this by the total number of cells per field. […]

Molecule | effect on permeability of rodent Sertoli cell monolayers (rat Sertoli cell TJs; effect lasted for a number of days) | effect on Sertoli cell TJs (rat Sertoli cell TJs; in vivo, and in vitro at the 5 and 10 μM concentration) | percent of cells undergoing proliferation (FSHr, BrdU double positive cells / total cells) [1]
[Cl][Cd][Cl] [Cadmium chloride, cadmium chloride] | increased the permeability | damage rat Sertoli cell TJs | –
follicle stimulating hormone [FSH] | – | – | 12.35%
